According to patent US20240209353A1, “NADK2 INHIBITION IN CANCER AND FIBROTIC DISORDERS” (Memorial Sloan-Kettering Cancer Center, priority 2021, published 2024):
Where “and” joins values, the source holds several entries; their conditions need not be identical. Equal values may be shown once.

Tested on: DLD1-OMP25HA cells
Assay: LC-MS metabolomic profiling, whole cell samples
Format: cell-based, human
Details: DLD1-OMP25HA sgCtrl + Piericidin 5 μM 2 hours, rep01-rep03
Method: Rapid immunopurification of mitochondria was performed following the published methodology (4). In brief, cells with control or NADK2 knockout were engineered to express the HA-tagged OMP25 protein (Addgene, 83356); or in the case of FIG. 5E, parental DLD1 cells were engineered to express the HA-tagged OMP25 protein or the Myc-tagged OMP25 protein (Addgene, 83355), 30 million cells were washed and dounce homogenized in KPBS (136 mM KCl and 10 mM KH2PO4, pH 7.25). The homogenate was then cleared by centrifugation and the supernatant was applied to anti-HA beads (Thermo Fisher, 88837) and incubated with rotation for 3.5 min. The resultant beads were washed with KPBS and were eluted for different downstream analyses: Triton X-100 lysis buffer (50 mM Tris-HCl, pH 7.4, 150 mM NaCl, 1 mM EDTA, 1% (vol/vol) Triton X-100, and protease inhibitors) was used to elute mitochondria for Western blot analysis; 80:20 methanol:water containing 1.5 μM ^13C^15N labeled amino acids (Cambridge Isotope Laboratories, MSK-A2-1.2) was used to elute mitochondria for liquid chromatography-mass spectrometry (LC-MS) analysis; 80:20 methanol:water was used to elute mitochondria for NAD(H) and NADP(H) measurements; glutathione lysis buffer (see below) was used to elute mitochondria for GSH measurements.
For negative ionization mode liquid chromatography separation was achieved on an iHILIC-(P) Classic column (100 mm×2.1 mm, 5 μm particle size, HILICON). Mobile phase A was 10 mM ammonium bicarbonate in 10:90 acetonitrile:water with 5 μM medronic acid, pH 9.4 and mobile phase B was 10 mM ammonium bicarbonate in 90:10 acetonitrile:water with 5 μM medronic acid, pH 9.4). The gradient was 0 min, 95% B; 15 min, 50% B; 18 min, 50% B; 19 min, 95% B; 19.10 min, 95% B; 25.5 min, 95% B; 2 mins posttime. Other LC parameters were: flow rate: 200 μL/min; column temperature: 40° C., and injection volume was 2 μL. MS parameters were: gas temp: 300° C.; gas flow: 10 L/min; nebulizer pressure: 40 psig; sheath gas temp: 350° C.; sheath gas flow: 12 L/min; VCap: 3,000 V; fragmentor: 125 V. Data were acquired from m/z 50-1700 with active reference masses correction (m/z: 121.05087 and 922.00980 (positive mode) or m/z: 119.03632 and 980.01638 (negative mode). Peak identification and integration were done based on in-house exact mass and retention time library built from commercial standards. Data analysis and natural isotope abundance correction were performed using MassHunter Profinder software v10.0 (Agilent Technologies).
For metabolomic profiling of the Mito-IP samples, dried extracts were resuspended in 30 μL of 60:40 acetonitrile:water and an additional 7.5 μL of 100% methanol added to prevent phase separation. Samples were vortexed, incubated on ice for 20 min, and clarified by centrifugation at 20,000 g for 20 min at 4° C. LC-MS analysis was using the iHILIC-(P) Classic negative method described with 6545 Q-TOF mass spectrometer (Agilent Technologies). Whole cell extracts were analyzed in parallel and data analysis was performed using MassHunter Profinder v10.0 software (Agilent Technologies). Metabolite identifications reported were based on either (a) exact mass and retention times matched to authentic standards (denoted as RT in Tables 1A-1G) or (b) exact mass and MS2 spectra match using SIRIUS software (denoted as MS2 in Tables 1A-1G) (https://bio.informatik.uni-jena.de/software/sirius/). Metabolites were considered to be mitochondrial if the average peak area measured in anti-HA Mito-IPs from HA-tagged OMP25 cells was at least 1.5-fold more than in anti-HA Mito-IPs from the control cell expressing Myc-tagged OMP25 (scc Tables 1A-1G; FC>1.5 for [OMP25HA sgCtrl MitoIP vs. OMP25Myc MitoIP]).

For `C/C=C(\C)[C@H](O)[C@H](C)/C=C(C)/C=C/C/C(C)=C/Cc1nc(OC)c(OC)c(O)c1C` [piericidin], the 2-aminoadipate was 146679 and 129247 and 159230, the 2-hydroxyglutarate was 3675897 and 3670344 and 3586833 and the 3-methyl-2-oxovalerate was 3696272 and 2980891 and 4249362. For the same compound, the 4-acetylbutyrate was 10363291 and 8533694 and 12130178, the 4-hydroxyproline was 522424 and 441928 and 551397 and the “5-methylthioadenosine (MTA)” value was 257749 and 400467 and 367942. For the same compound, the 5-oxoproline was 16393034 and 14068076 and 17132083, the 6-phosphogluconate was 65481 and 57701 and 58966 and the “N6-(delta-isopentenyl)-adenine” value was 293077 and 229998 and 281738. For the same compound, the N-acetyl-beta-alanine was 1022765 and 956905 and 1036571, the N-acetylalanine was 238161 and 214277 and 230562 and the “N-acetylaspartate (NAA)” value was 12095956 and 11050203 and 12351863. The “N-acetylglucosamine 6-phosphate” value was 428986 and 380372 and 454385, the N-acetylglutamate was 987898 and 1549149 and 871723 and the N-acetylglycine was 43846 and 40358 and 41154. The N-acetylmethionine was 462515 and 426811 and 428397, the N-acetylserine was 5896001 and 5058414 and 6358391 and the N-acetyltaurine was 1110210 and 1084752 and 1148548. For the same compound, the N-acetylthreonine was 1380430 and 1226851 and 1295989, the UDP-N-acetylglucosamine was 4639411 and 4238311 and 4998970 and the UDP-glucuronate was 1027925 and 858275 and 1243921. For the same compound, the aconitate was 346582 and 453318 and 406006, the adenine was 481304 and 768689 and 708555 and the “adenosine 5′-diphosphate (ADP)” value was 1129524 and 1189412 and 1083190. For the same compound, the “adenosine 5′-monophosphate (AMP)” value was 646021 and 715531 and 648428, the “adenosine 5′-triphosphate (ATP)” value was 2352445 and 2990040 and 2388618 and the alanine was 1663860 and 1344230 and 1765231. The alanylhistidine was 22199 and 41823 and 30446, the allantoin was 3703951 and 3225148 and 4031072 and the arginine was 1086834 and 998509 and 1348136. The asparagine was 2068551 and 1580346 and 2240202, the aspartate was 1717174 and 1947525 and 1819639 and the beta-glycerophosphoric acid was 850446 and 705915 and 880253. The betaine was 161649 and 112014 and 159770, the caproate was 114886 and 109032 and 115791 and the carbamoyl aspartate was 3763133 and 3469742 and 3815379. The carnitine was 43283 and 41086 and 45131, the citrate was 9028971 and 10970194 and 9594217 and the creatine was 549841 and 451406 and 565679. The creatine phosphate was 394087 and 351223 and 410441, the creatinine was 277361 and 240499 and 323168 and the “cytidine 5′-triphosphate (CTP)” value was 81066 and 75474 and 92586. The “dihydroxyacetone phosphate (DHAP)” value was 1214605 and 1228567 and 1670800, the dodecanoate was 303807 and 282352 and 360172 and the “flavin adenine dinucleotide (FAD)” value was 115513 and 108031 and 137050. The folate was 99228 and 128177 and 134416, the formylpyruvate was 1414077 and 902945 and 1059691 and the “fructose 1,6-biphosphate” value was 1321982 and 1216851 and 1680580. For the same compound, the “fructose 6′-phosphate” value was 57127 and 49316 and 50145, the fumarate was 357661 and 412548 and 377283 and the galactitol was 918739 and 708477 and 1199966. The galactonic acid was 2240293 and 1677985 and 2390572, the “gamma-aminobutyrate (GABA)” value was 3496195 and 3622488 and 3524195 and the glucosamine was 164826 and 119694 and 178113. The “glucose 6′-phosphate” value was 755029 and 621609 and 531377, the glutamate was 126622339 and 129663305 and 129294077 and the glutamine was 58464656 and 69652329 and 62470821. The “glyceraldehyde 3-phosphate” value was 3045295 and 3098709 and 4229751, the “glycerophosphorylcholine (GPC)” value was 210330 and 183098 and 225230 and the glycine was 146868 and 137614 and 144892. The glycylaspartate was 205091 and 201360 and 226481, the “guanosine 5′-diphosphate (GDP)” value was 69660 and 69853 and 38046 and the “guanosine 5′-diphosphoglucose” value was 33192 and 34147 and 38993. For the same compound, the “guanosine 5′-monophosphate (GMP)” value was 44633 and 51573 and 51777, the “guanosine 5′-triphosphate (GTP)” value was 171526 and 214847 and 133658 and the histidine was 15027640 and 12343272 and 17476456. For the same compound, the hydroxyphenyllactate was 1478092 and 1166698 and 1355443, the “inosine 5′-monophosphate (IMP)” value was 22897 and 17939 and 22222 and the isoleucine was 4513788 and 3853543 and 5003963. For the same compound, the lactate was 105521436 and 97172905 and 114401680, the leucine was 7669096 and 6479727 and 8479119 and the lysine was 195097 and 149255 and 233140. For the same compound, the malate was 12653099 and 10480180 and 12542946, the methionine was 1041135 and 894784 and 1078995 and the “methylthioribulose 1-phosphate” value was 21298086 and 18010540 and 22620900. The nicotinamide was 39081 and 33023 and 41574, the “nicotinamide adenine dinucleotide (NAD+)” value was 7875605 and 8688241 and 9053967 and the “nicotinamide adenine dinucleotide phosphate (NADP+)” value was 15380 and 19291 and 12614. For the same compound, the “nicotinamide adenine dinucleotide, reduced (NADH)” value was 455322 and 465048 and 452884, the oleate was 460639 and 248285 and 328228 and the palmitate was 20015231 and 20994808 and 24605738. The pantothenate was 8937050 and 7961239 and 9124782, the pentadecanoic acid was 302982 and 182808 and 229103 and the phenylacetate was 87967 and 87598 and 109383. The phenylacetylglycine was 1781914 and 1641866 and 2033368, the phenylalanine was 6841254 and 5972052 and 7346184 and the phosphocholine was 1734241 and 1590770 and 1746457. For the same compound, the “phosphoenolpyruvate (PEP)” value was 217348 and 206448 and 247608, the proline was 4018244 and 3303744 and 4136919 and the “ribose 5′-phosphate” value was 30487 and 39389 and 44236. For the same compound, the serine was 1972729 and 1697021 and 2115421, the serinylaspartate was 80143 and 82279 and 87822 and the sn-glycero-3-phosphoethanolamine was 3947102 and 4703023 and 3861169. For the same compound, the stearate was 10555350 and 11041062 and 14072247, the succinate was 468012 and 552589 and 622074 and the taurine was 79062900 and 54111662 and 81152564. For the same compound, the threonate was 4663562 and 3938483 and 4644285, the threonine was 13508533 and 12463455 and 14159756 and the “thymidine 5′-diphospho-alpha-D-glucose” value was 14725 and 13909 and 14870. The thymine was 24681 and 21055 and 27340, the tryptophan was 747292 and 595893 and 756562 and the tyrosine was 3847092 and 3576189 and 3918008. The “uridine 5′-diphosphate (UDP)” value was 175584 and 155688 and 210038, the “uridine 5′-monophosphate (UMP)” value was 631970 and 347896 and 460624 and the “uridine 5′-triphosphate (UTP)” value was 3135652 and 2793092 and 3584193. For the same compound, the valine was 1041408 and 903609 and 1081229.
